Laboratory results as given in ChEMBL document CHEMBL1142066, “In vitro effects of antimicrobial agents on planktonic and biofilm forms of Staphylococcus lugdunensis clinical isolates” (2007).
Values after ≈ are worked out from the molar mass of the structure shown. Active and inactive are the calls of the source. The calls are words filed in the database; no cut-off is given here.

How the values were obtained:
[1] = tested on: Staphylococcus lugdunensis; test: Antimicrobial susceptibility of Staphylococcus lugdunensis IDRL5254 biofilms after 24 hrs assessed as bacterial regrowth; assay type: functional
[2] = tested on: Staphylococcus lugdunensis; test: Antimicrobial susceptibility of Staphylococcus lugdunensis IDRL2492 biofilms after 24 hrs assessed as bacterial regrowth; assay type: functional
[3] = tested on: Staphylococcus lugdunensis; test: Antimicrobial susceptibility of Staphylococcus lugdunensis isolates by broth microdilution method; assay type: functional; settings: for MIC50 / MIC90: Staphylococcus lugdunensis
[4] = tested on: Staphylococcus lugdunensis; test: Antimicrobial susceptibility of Staphylococcus lugdunensis IDRL5204 biofilms after 24 hrs assessed as bacterial regrowth; assay type: functional
[5] = tested on: Staphylococcus lugdunensis; test: Antimicrobial susceptibility of Staphylococcus lugdunensis IDRL2554 biofilms after 24 hrs assessed as bacterial regrowth; assay type: functional
[6] = tested on: Staphylococcus lugdunensis; test: Antimicrobial susceptibility of Staphylococcus lugdunensis IDRL5256 biofilms after 24 hrs assessed as bacterial regrowth; assay type: functional
[7] = tested on: Staphylococcus lugdunensis; test: Increase in biofilm formation of Staphylococcus lugdunensis assessed as percent biofilm forming isolates; assay type: functional
[8] = tested on: Staphylococcus lugdunensis; test: Antimicrobial susceptibility of Staphylococcus lugdunensis IDRL2414 biofilms after 24 hrs assessed as bacterial regrowth; assay type: functional
[9] = tested on: Staphylococcus lugdunensis; test: Effect on biofilm formation of Staphylococcus lugdunensis assessed as percent non-biofilm forming isolates; assay type: functional; parameters: concentration or dose not given beside the values
[10] = tested on: Staphylococcus lugdunensis; test: Decrease in biofilm formation of Staphylococcus lugdunensis assessed as percent biofilm forming isolates; assay type: functional; parameters: concentration or dose not given beside the values
[11] = tested on: Staphylococcus lugdunensis; test: Antimicrobial susceptibility of Staphylococcus lugdunensis IDRL856 biofilms after 24 hrs assessed as bacterial regrowth; assay type: functional
[12] = tested on: Staphylococcus lugdunensis; test: Antimicrobial susceptibility of Staphylococcus lugdunensis IDRL2640 biofilms after 24 hrs assessed as bacterial regrowth; assay type: functional
[13] = tested on: Staphylococcus lugdunensis; test: Antimicrobial susceptibility of Staphylococcus lugdunensis IDRL2526 biofilms after 24 hrs assessed as bacterial regrowth; assay type: functional
[14] = tested on: Staphylococcus lugdunensis; test: Antimicrobial susceptibility of Staphylococcus lugdunensis IDRL5258 biofilms after 24 hrs assessed as bacterial regrowth; assay type: functional
[15] = tested on: Staphylococcus lugdunensis; test: Antimicrobial susceptibility of Staphylococcus lugdunensis IDRL2639 biofilms after 24 hrs assessed as bacterial regrowth; assay type: functional
[16] = tested on: Staphylococcus lugdunensis; test: Antimicrobial susceptibility of Staphylococcus lugdunensis IDRL2394 biofilms after 24 hrs assessed as bacterial regrowth; assay type: functional
[17] = tested on: Staphylococcus lugdunensis; test: Antimicrobial susceptibility of Staphylococcus lugdunensis IDRL2622 biofilms after 24 hrs assessed as bacterial regrowth; assay type: functional
[18] = tested on: Staphylococcus lugdunensis; test: Antimicrobial susceptibility of Staphylococcus lugdunensis IDRL2664 biofilms after 24 hrs assessed as bacterial regrowth; assay type: functional
[19] = tested on: Staphylococcus lugdunensis; test: Antimicrobial susceptibility of Staphylococcus lugdunensis IDRL2588 biofilms after 24 hrs assessed as bacterial regrowth; assay type: functional
[20] = tested on: Staphylococcus epidermidis; test: Increase in biofilm formation of Staphylococcus epidermidis RP62A at 0.25 times MIC; assay type: functional, organism-based
[21] = tested on: Staphylococcus aureus; test: Increase in biofilm formation of Staphylococcus aureus SA113 at 0.25 times MIC; assay type: functional, organism-based
[22] = tested on: Staphylococcus epidermidis; test: Decrease in biofilm formation of Staphylococcus epidermidis RP62A; assay type: functional, organism-based
[23] = tested on: Staphylococcus aureus; test: Decrease in biofilm formation of Staphylococcus aureus SA113; assay type: functional, organism-based
[24] = tested on: Staphylococcus lugdunensis; test: Antimicrobial susceptibility of Staphylococcus lugdunensis IDRL5204 isolate from prosthetic joint infection patient by broth microdilution method; assay type: functional
[25] = tested on: Staphylococcus lugdunensis; test: Stimulation of Staphylococcus lugdunensis IDRL5256 biofilm formation; assay type: functional, organism-based
[26] = tested on: Staphylococcus lugdunensis; test: Antimicrobial susceptibility of Staphylococcus lugdunensis IDRL2394 isolate from prosthetic joint infection patient by broth microdilution method; assay type: functional
[27] = tested on: Staphylococcus lugdunensis; test: Antimicrobial susceptibility of Staphylococcus lugdunensis IDRL5256 isolate from prosthetic joint infection patient by broth microdilution method; assay type: functional
[28] = tested on: Staphylococcus lugdunensis; test: Ratio of MBC to MIC for Staphylococcus lugdunensis IDRL5256 isolate from prosthetic joint infection patient by broth microdilution method; assay type: functional
[29] = tested on: Staphylococcus lugdunensis; test: Antimicrobial susceptibility of Staphylococcus lugdunensis IDRL5254 isolate from intravascular catheter infection patient by broth microdilution method; assay type: functional

SMILES	BBC [1]	BBC [2]	MBC50 [3]	MBC90 [3]	MIC50 [3]	MIC90 [3]	BBC [4]	BBC [6]	Activity [7]	BBC [8]	Activity [9]	Activity [10]	BBC [11]	BBC [12]	BBC [13]	BBC [14]	BBC [15]	BBC [16]	BBC [17]	BBC [19]	also measured
CCCCCCCCCC(=O)N[C@@H](Cc1c[nH]c2ccccc12)C(=O)N[C@H](CC(N)=O)C(=O)N[C@@H](CC(=O)O)C(=O)N[C@@H]1C(=O)NCC(=O)N[C@@H](CCCN)C(=O)N[C@@H](CC(=O)O)C(=O)N[C@H](C)C(=O)N[C@@H](CC(=O)O)C(=O)NCC(=O)N[C@H](CO)C(=O)N[C@@H]([C@H](C)CC(=O)O)C(=O)N[C@@H](CC(=O)c2ccccc2N)C(=O)O[C@@H]1C	128 µg/mL	8 µg/mL	0.5 µg/mL (≈ 0.309 µM)	1 µg/mL (≈ 0.617 µM)	0.125 µg/mL (≈ 0.0771 µM)	0.25 µg/mL (≈ 0.154 µM)	8 µg/mL	64 µg/mL	13%	>128 µg/mL	87%	0%	16 µg/mL	>128 µg/mL	8 µg/mL	16 µg/mL	32 µg/mL	64 µg/mL	1 µg/mL	128 µg/mL	BBC [5]: 4 µg/mL; BBC [18]: 32 µg/mL
Cc1nnc(SCC2=C(C(=O)O)N3C(=O)[C@@H](NC(=O)Cn4cnnn4)[C@H]3SC2)s1 [CEFAZOLIN]	>128 µg/mL	>128 µg/mL	0.5 µg/mL (≈ 1.1 µM)	1 µg/mL (≈ 2.2 µM)	0.25 µg/mL (≈ 0.55 µM)	0.5 µg/mL (≈ 1.1 µM)	1 µg/mL	>128 µg/mL	13%	>128 µg/mL	80%	7%	>128 µg/mL	>128 µg/mL	>128 µg/mL	>128 µg/mL	4 µg/mL	>128 µg/mL	2 µg/mL	>128 µg/mL	BBC [5]: >128 µg/mL; BBC [18]: 8 µg/mL
CC(=O)NC[C@H]1CN(c2ccc(N3CCOCC3)c(F)c2)C(=O)O1 [LINEZOLID]	>128 µg/mL	>128 µg/mL	>128 µg/mL	>128 µg/mL	1 µg/mL (≈ 2.96 µM)	1 µg/mL (≈ 2.96 µM)	4 µg/mL	>128 µg/mL	0%	>128 µg/mL	20%	80%	>128 µg/mL	>128 µg/mL	>128 µg/mL	>128 µg/mL	>128 µg/mL	>128 µg/mL	>128 µg/mL	>128 µg/mL	BBC [5]: >128 µg/mL; Activity [20]: Active; Activity [21]: Active; BBC [18]: >128 µg/mL
COc1c(N2C[C@@H]3CCCN[C@@H]3C2)c(F)cc2c(=O)c(C(=O)O)cn(C3CC3)c12 [MOXIFLOXACIN]	0.5 µg/mL	0.25 µg/mL	0.125 µg/mL (≈ 0.311 µM)	0.25 µg/mL (≈ 0.623 µM)	0.125 µg/mL (≈ 0.311 µM)	0.25 µg/mL (≈ 0.623 µM)	0.5 µg/mL	1 µg/mL	27%	0.5 µg/mL	33%	40%	0.25 µg/mL	2 µg/mL	0.5 µg/mL	<=0.125 ug ml-1	0.25 µg/mL	2 µg/mL	2 µg/mL	0.5 µg/mL	BBC [5]: <=0.125 ug ml-1; BBC [18]: <=0.125 ug ml-1
CCOc1ccc2ccccc2c1C(=O)N[C@@H]1C(=O)N2[C@@H]1SC(C)(C)[C@@H]2C(=O)O [NAFCILLIN]	>128 µg/mL	8 µg/mL	0.5 µg/mL (≈ 1.21 µM)	2 µg/mL (≈ 4.83 µM)	0.5 µg/mL (≈ 1.21 µM)	0.5 µg/mL (≈ 1.21 µM)	0.5 µg/mL	>128 µg/mL	93%	>128 µg/mL	7%	0%	16 µg/mL	>128 µg/mL	4 µg/mL	0.5 µg/mL	1 µg/mL	>128 µg/mL	8 µg/mL	8 µg/mL	BBC [5]: 2 µg/mL; Activity [22]: Active; Activity [23]: Active; BBC [18]: 2 µg/mL
CO[C@H]1/C=C/O[C@@]2(C)Oc3c(C)c(O)c4c(O)c(c(/C=N/N5CCN(C)CC5)c(O)c4c3C2=O)NC(=O)/C(C)=C\C=C\[C@H](C)[C@H](O)[C@@H](C)[C@@H](O)[C@@H](C)[C@H](OC(C)=O)[C@@H]1C [RIFAMPIN]	64 µg/mL	64 µg/mL	8 µg/mL (≈ 9.72 µM)	>32 µg/mL	≤ 0.03 µg/mL	≤ 0.03 µg/mL	32 µg/mL	32 µg/mL	7%	0.25 µg/mL	93%	0%	8 µg/mL	64 µg/mL	32 µg/mL	8 µg/mL	32 µg/mL	0.25 µg/mL	64 µg/mL	64 µg/mL	
Cc1cc(NS(=O)(=O)c2ccc(N)cc2)no1 [SULFAMETHOXAZOLE]																					MIC [24]: 304 µg/mL (≈ 1200 µM)
CN(C)[C@@H]1C(O)=C(C(N)=O)C(=O)[C@@]2(O)C(O)=C3C(=O)c4c(O)cccc4[C@@](C)(O)[C@H]3C[C@@H]12 [TETRACYCLINE]	128 µg/mL	128 µg/mL	>32 µg/mL	>32 µg/mL	0.25 µg/mL (≈ 0.563 µM)	1 µg/mL (≈ 2.25 µM)	1 µg/mL	128 µg/mL	7%	128 µg/mL	0%	93%	128 µg/mL	128 µg/mL	128 µg/mL	64 µg/mL	16 µg/mL	128 µg/mL	128 µg/mL	128 µg/mL	BBC [5]: 128 µg/mL; Activity [25]: Active; BBC [18]: 128 µg/mL
COc1cc(Cc2cnc(N)nc2N)cc(OC)c1OC [TRIMETHOPRIM]																					MIC [24]: 16 µg/mL (≈ 55.1 µM)
CN[C@H](CC(C)C)C(=O)N[C@H]1C(=O)N[C@@H](CC(N)=O)C(=O)N[C@H]2C(=O)N[C@H]3C(=O)N[C@H](C(=O)N[C@H](C(=O)O)c4cc(O)cc(O)c4-c4cc3ccc4O)[C@H](O)c3ccc(c(Cl)c3)Oc3cc2cc(c3O[C@@H]2O[C@H](CO)[C@@H](O)[C@H](O)[C@H]2O[C@H]2C[C@](C)(N)[C@H](O)[C@H](C)O2)Oc2ccc(cc2Cl)[C@H]1O [VANCOMYCIN]	>128 µg/mL	>128 µg/mL	>128 µg/mL	>128 µg/mL	1 µg/mL (≈ 0.69 µM)	2 µg/mL (≈ 1.38 µM)	4 µg/mL	>128 µg/mL	27%	>128 µg/mL	47%	27%	>128 µg/mL	>128 µg/mL	>128 µg/mL	>128 µg/mL	>128 µg/mL	>128 µg/mL	>128 µg/mL	>128 µg/mL	MBC [26]: 64 µg/mL (≈ 44.2 µM); BBC [5]: 4 µg/mL; MBC [27]: 4 µg/mL (≈ 2.76 µM); Ratio [28]: >=64; MBC [29]: 64 µg/mL (≈ 44.2 µM); BBC [18]: 8 µg/mL
